Reference: ChEMBL document CHEMBL1136150, “Hypocholesterolemic activity of hesperetin derivatives” (2003)

Legend:
Format in all cases: functional
Mus musculus [1] = species on record: Mus musculus; assay: Effect on plasma total cholesterol in high cholesterol-fed mice after 10 day
Mus musculus [2] = species on record: Mus musculus; assay: Effect on plasma total cholesterol in high cholesterol-fed mice after 0 day
Mus musculus [3] = species on record: Mus musculus; assay: Body weight of the high cholesterol-fed mice after 10 day
Mus musculus [4] = species on record: Mus musculus; assay: Body weight of the high cholesterol-fed mice after 0 day

| SMILES | Total cholesterol (Mus musculus [1]) [mg/dL] | Total cholesterol (Mus musculus [2]) [mg/dL] | Body weight (Mus musculus [3]) [g] | Body weight (Mus musculus [4]) [g] |
| --- | --- | --- | --- | --- |
| CCCCCCCCCCCCOc1cc(O)c2c(c1)OC(c1ccc(OC)c(O)c1)CC2=O (configuration not stated) | 189 | 95 | 22.4 | 22 |
| CCCCCCCCCCCC(=O)Oc1cc(O)c2c(c1)OC(c1ccc(OC)c(O)c1)CC2=O (configuration not stated) | 192 | 95 | 22.4 | 22.4 |
| CCCCCCCCCCCCCCCCCC(=O)Oc1cc(O)c2c(c1)OC(c1ccc(OC)c(O)c1)CC2=O (configuration not stated) | 214 | 95 | 23.7 | 22.3 |
| CCOc1cc(O)c2c(c1)OC(c1ccc(OC)c(O)c1)CC2=O (configuration not stated) | 218 | 102 | 22.5 | 21.9 |
| CCCCCCCC/C=C\CCCCCCCCOc1cc(O)c2c(c1)OC(c1ccc(OC)c(O)c1)CC2=O (configuration not stated) | 192 | 96 | 23.7 | 23.4 |
| CCCCCCCCCCCCCCCCCCOc1cc(O)c2c(c1)OC(c1ccc(OC)c(O)c1)CC2=O (configuration not stated) | 208 | 101 | 24.4 | 23.1 |
| COc1ccc(C2CC(=O)c3c(O)cc(OC(C)=O)cc3O2)cc1O (configuration not stated) | 220 | 96 | 23.7 | 23.4 |
| CCCCCCCCCCCCCCCCOc1cc(O)c2c(c1)OC(c1ccc(OC)c(O)c1)CC2=O (configuration not stated) | 202 | 93 | 23 | 22.5 |
| CCCCCCCCCCCCCCCC(=O)Oc1cc(O)c2c(c1)OC(c1ccc(OC)c(O)c1)CC2=O (configuration not stated) | 209 | 97 | 23.4 | 21.7 |
| CCCCCCCC/C=C\CCCCCCCC(=O)Oc1cc(O)c2c(c1)OC(c1ccc(OC)c(O)c1)CC2=O (configuration not stated) |  |  | 23.8 | 22.3 |
| COc1ccc([C@@H]2CC(=O)c3c(O)cc(O)cc3O2)cc1O [HESPERETIN] | 216 | 103 | 25.6 | 25.4 |
